# Test results reported in patent US9090645B2, “Therapeutic compositions and methods of treatment with capsianoside-type compounds” (BMB Patent Holding Corporation, priority 2006, dated 2015).
# Where “and” joins values, the source holds several entries; their conditions need not be identical. Equal values may be shown once.
# Assays:
# [1] = system: capsaicin-treated hindpaw; experiment: Analgesic Bioassay: rat hindpaw withdrawal latency assay; assay type: in vivo, Sprague-Dawley rats; conditions: for Avg. Cmpd. @ 5 min (hindpaw withdrawal latency): 5 min after compound on capsaicin-treated hindpaw; for Avg. Cmpd. @ 5 min (hindpaw withdrawal latency) / Avg. Cmpd. @ 20 min (hindpaw withdrawal latency) / Avg. Cmpd @ 30 min (hindpaw withdrawal latency): 498: 0.27 mg, 660: 0.33 mg; for Avg. Cmpd. @ 5 min (hindpaw withdrawal latency) / Avg. Cmpd. @ 20 min (hindpaw withdrawal latency) / Avg. Cmpd @ 30 min (hindpaw withdrawal latency) / Avg. Cap. @ 20 min (hindpaw withdrawal latency) / Avg. Cap. @ 25 min (hindpaw withdrawal latency) / Avg. Cap. @ 30 min (hindpaw withdrawal latency) / Avg. All Capsaicin (hindpaw withdrawal latency) / Avg. All Baselines (hindpaw withdrawal latency): n=5; for Avg. Cmpd. @ 20 min (hindpaw withdrawal latency): 20 min after compound on capsaicin-treated hindpaw; for Avg. Cmpd @ 30 min (hindpaw withdrawal latency): 30 min after compound on capsaicin-treated hindpaw; for Avg. Cap. @ 20 min (hindpaw withdrawal latency) / Avg. Cap. @ 25 min (hindpaw withdrawal latency) / Avg. Cap. @ 30 min (hindpaw withdrawal latency) / Avg. All Capsaicin (hindpaw withdrawal latency) / Avg. All Baselines (hindpaw withdrawal latency): Table 7; for Avg. Cap. @ 20 min (hindpaw withdrawal latency): 20 min post-capsaicin; for Avg. Cap. @ 20 min (hindpaw withdrawal latency) / Avg. Cap. @ 25 min (hindpaw withdrawal latency) / Avg. Cap. @ 30 min (hindpaw withdrawal latency) / Avg. All Capsaicin (hindpaw withdrawal latency): before compound; for Avg. Cap. @ 25 min (hindpaw withdrawal latency): 25 min post-capsaicin; for Avg. Cap. @ 30 min (hindpaw withdrawal latency): 30 min post-capsaicin; for Avg. All Capsaicin (hindpaw withdrawal latency): all post-capsaicin times; for Avg. All Baselines (hindpaw withdrawal latency): before any treatment
# Description: A rat hindpaw assay was used to determine the therapeutic effectiveness of various extracts/compounds as analgesics in the present invention.
# Sprague-Dawley rats (225-250 g, male) were anesthetized with urethane and placed on their sides on a disposable Chux pad. Both hindpaws for each rat were blackened with India ink which was allowed to dry for 10 minutes. An ELH projector lamp calibrated to a standard mW/cm^2 was used as a pain stimulus and was condensed into an area of 5×15 mm on each hindpaw and placed perpendicular to, and 72 mm from, each hindpaw.
# Multiple baseline hindpaw withdrawal latency times were recorded (in seconds) for each medial and each lateral surface of each hindpaw. Subsequently, 100 μl of 1 μmolar capsaicin was applied with a pipette to cover one hindpaw of each animal and allowed to dry for 10 minutes, rendering the capsaicin-treated hindpaw hypersensitive to pain stimulus relative to the non-capsaicin treated hindpaw (and thereby decreasing the withdrawal latency period for the capsaicin-treated hindpaw relative to the non-treated hindpaw).
# Both hindpaws were then re-blackened with India ink which was allowed to dry for 10 minutes, and hindpaw withdrawal latencies were recorded for both the capsaicin-treated and untreated hindpaws on both the medial and lateral aspects of both hindpaws at 20, 25 and 30 minutes. […] By contrast, only minor drops in the withdrawal latency periods of the untreated hindpaws was seen, and the effect that was observed is believed to be due to the central mechanism effect of capsaicin-treatment on the other hindpaw.
# To determine the analgesic properties of each fraction, 100 μl of each fraction were applied to the capsaicin-treated hindpaw by pipette and permitted to dry (the untreated hindpaw was not treated with the fraction). Hindpaw withdrawal latencies were then recorded at 5, 20 and 30 minutes for both the capsaicin/fraction-treated hindpaw and the untreated hindpaw. An increase in the hindpaw withdrawal time was indicative of an analgesic effect by the applied fraction.
# [2] = system: carrageenan-induced inflammation in air pouch; experiment: Inflammation Bioassay: mouse air pouch assay (carrageenan), white blood cells in exudates; assay type: in vivo, mice
# Description: A mouse air pouch assay was used to determine the therapeutic effectiveness of various extracts/compounds as anti-inflammatory agents in the present invention.
# To induce air pouches, 10-15 week old mice were injected subcutaneously on the back with 3 ml of air.
# On day 2, the pouches were reinflated with 1.5 m. of air.
# On day 6, inflammation was induced by injecting 1 ml of a suspension of carrageenan (2% weight/volume in calcium-free and magnesium-free phosphate buffered saline (PBS) solution) into the air pouch.
# 100 μL of solution including test compounds were injected with the carrageenan (additional 100 μL of PBS were injected into the controls).
# After 4 hours, the mice were sacrificed by including CO2 narcosis, the pouches were flushed with 2 ml of PBS, and exudates were harvested.
# Exudates were diluted 1:1 with 0.015% methylene blue in PBS.
# White blood cells were counted in a standard hemocytometer chamber (American Optical, Buffalo, N.Y.).
# [3] = individual mice, 100 μL test solution injected with carrageenan, 4 hours
SMILES,Avg. Cmpd. @ 5 min (hindpaw withdrawal latency) [1] [s],Avg. Cmpd. @ 20 min (hindpaw withdrawal latency) [1] [s],Avg. Cmpd @ 30 min (hindpaw withdrawal latency) [1] [s],analgesic activity (in words) ([1]; Analgesic Bioassay (Example 1)),Avg. Cap. @ 20 min (hindpaw withdrawal latency) [1] [s],Avg. Cap. @ 25 min (hindpaw withdrawal latency) [1] [s],Avg. Cap. @ 30 min (hindpaw withdrawal latency) [1] [s],Avg. All Capsaicin (hindpaw withdrawal latency) [1] [s],Avg. All Baselines (hindpaw withdrawal latency) [1] [s],"Average Cells (10^6/ml) (white blood cells in exudate) ([2]; average of five mice, control mice (PBS) 2.67)","Cells (10^6/ml) (white blood cells in exudate) [2, 3]","Cells/ml (white blood cells in exudate) [2, 3]",anti-inflammatory effects compared with methotrexate and dexamethasone ([2]; mouse air pouch)
"C=C[C@](C)(CC/C=C(\C)CC/C=C(\C)CC(O)/C=C(\C)C(=O)O)O[C@@H]1OC(CO)[C@@H](O)C(O)C1O (relative stereo) [Compound 498, 14-(beta-D-glucopyranosyloxy)-4-hydroxy-2,6,10,14-tetramethyl-2,6,10,15-hexadecatetraenoic acid [4R-(2E,4R*,6E,10E,14S*)]]",13.6,9.4,8.1,strong analgesic effect,7.4,7.956,5.4,6.9,10.77,,,,
"C=C[C@](C)(CC/C=C(\C)CC/C=C(\C)CC(O)/C=C(\C)C(=O)O)O[C@@H]1OC(CO)[C@@H](O)C(O)C1O[C@@H]1OC(CO)[C@@H](O)C(O)C1O (stereo partly drawn) [Compound 660, capsianoside I]",10.5,9.6,6.5,,9.5,6.4,5.9,7.3,9.5,1.54 10^6/ml,1.30 10^6/ml and 2.49 10^6/ml (2×) and 0.32 10^6/ml and 1.09 10^6/ml,1.30E+06 Cells/ml and 2.49E+06 Cells/ml (2×) and 3.23E+05 Cells/ml and 1.09E+06 Cells/ml,"comparable to 0.5-1.0 mg/kg/week of chronic methotrexate, or 1.5 mg/kg acute dose of dexamethasone"
